Target: Mu-type opioid receptor (Homo sapiens, UniProt P35372)
Test: Inhibition of [3H]- diprenorphine binding on Opioid receptor mu 1 expressed in human embryonic kidney (HEK) cells
Format: cell-based

Sequence of Mu-type opioid receptor (P35372 whole entry): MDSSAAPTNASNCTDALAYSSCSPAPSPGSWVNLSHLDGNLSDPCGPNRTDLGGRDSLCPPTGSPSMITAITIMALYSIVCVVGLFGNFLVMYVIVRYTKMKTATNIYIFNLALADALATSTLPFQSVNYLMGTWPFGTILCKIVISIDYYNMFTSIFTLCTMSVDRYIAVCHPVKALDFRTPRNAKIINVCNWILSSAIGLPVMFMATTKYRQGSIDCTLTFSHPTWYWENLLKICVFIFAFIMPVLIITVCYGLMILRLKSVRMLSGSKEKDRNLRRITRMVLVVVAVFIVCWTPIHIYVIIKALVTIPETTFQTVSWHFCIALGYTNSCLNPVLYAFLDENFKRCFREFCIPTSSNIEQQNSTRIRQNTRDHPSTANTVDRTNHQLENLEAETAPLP

**Q.** Which Ki does the source give for O=Cc1cc2ccc(C(=O)N[C@@H]3CC[C@@]4(O)C5Cc6ccc(O)c7c6[C@@]4(CCN5CC4CC4)[C@H]3O7)cc2cc1C=O here?
**A.** The Ki was 0.744 nM.

From ChEMBL document CHEMBL1135490, “Naphthalene dicarboxaldehyde as an electrophilic fluorogenic moiety for affinity labeling: application to opioid receptor affinity labels with greatly improved fluorogenic properties” (J Med Chem, 2002)
